Where two headings read alike, the source gives them in different places.
Columns and labels:
[1] = system: MDR Klebsiella pneumoniae B 88 producing NDM, SHV & TEM beta-lactamases; test: Time kill study at MFC and MSC; type: cell-based; conditions: for Bacterial count: Cefepime 8 mcg/ml (MFC), Compound of Formula (III) 0.12 mcg/ml (MSC), Imepenem 8 mcg/ml
Procedure: (§1) The synergistic killing effect of the combinations according to invention was studied by performing time kill studies. In a typical time kill study, the freshly grown cultures were diluted to the required cell density (initial starting inoculum) in Cation adjusted Muller Hinton broth medium (BD, USA). The antibacterial agents (either alone or in combination) at the required concentrations were added into the culture-containing medium. The samples were incubated under shaking condition (120 rpm) at 37° C. Enumeration of viable bacterial count was done every 2 hour by diluting in normal saline and plating on to the Tryptic Soya Agar plates (BD, USA). The plates were incubated for 24 hours to arrive at the viable bacterial count. The results are expressed in terms of Log CFU per ml. In general, the decrease of 1 Log CFU/ml, corresponds to 90% killing of bacteria. Similarly, 2 Log CFU/ml reductions indicates to 99% killing of bacteria and 3 Log CFU/ml reductions is equal to 99.9% killing of bacteria.

[2] = system: MDR P. mirabilis G 186 producing NDM & TEM β-lactamases; test: Time kill study at MFC and MSC; type: cell-based; conditions: for Bacterial count: Cefepime 8 mcg/ml (MFC), Compound of Formula (III) 0.25 mcg/ml (MSC), Imepenem 8 mcg/ml
Procedure: as §1

[3] = target: T1, Pseudomonas PBP 3 (Pseudomonas aeruginosa, UniProt G3XD46); test: biochemical; type: binding
T1 construct: endogenous in cells
T1 sequence (G3XD46 whole entry): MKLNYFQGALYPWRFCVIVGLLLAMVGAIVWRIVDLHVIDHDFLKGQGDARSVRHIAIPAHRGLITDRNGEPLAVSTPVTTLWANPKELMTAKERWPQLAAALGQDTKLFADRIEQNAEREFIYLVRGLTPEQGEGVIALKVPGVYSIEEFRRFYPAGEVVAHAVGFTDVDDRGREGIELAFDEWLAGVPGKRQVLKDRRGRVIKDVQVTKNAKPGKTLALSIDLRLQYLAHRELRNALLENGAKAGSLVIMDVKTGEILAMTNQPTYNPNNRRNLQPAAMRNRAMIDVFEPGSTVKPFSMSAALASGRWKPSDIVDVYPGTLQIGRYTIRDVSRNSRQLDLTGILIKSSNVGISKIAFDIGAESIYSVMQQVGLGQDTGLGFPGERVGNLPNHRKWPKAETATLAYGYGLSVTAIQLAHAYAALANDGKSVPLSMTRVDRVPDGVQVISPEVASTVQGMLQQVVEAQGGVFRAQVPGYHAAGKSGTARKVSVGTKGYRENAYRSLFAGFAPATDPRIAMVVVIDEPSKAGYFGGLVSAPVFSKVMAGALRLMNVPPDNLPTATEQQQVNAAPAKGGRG
Procedure: The phrase “selective and high affinity PBP binder” refers to a PBP binder which binds to only one PBP with very high affinity. In general, the term “selective and high affinity PBP binder” also includes those binders where a substantial fraction of binder selectively binds to only one PBP with high affinity.
The reaction mixtures were then denatured with 20 μl each of SDS-denaturing solution at 100° C. for 3 min PBPs were separated through 10% SDS polyacrylamide gel electrophoresis (Bio-Rad Laboratories, Hercules, Calif.). The protein gels were rinsed in water immediately after electrophoresis.

[4] = system: P. mirabilis G 186; test: MIC determination; type: cell-based; conditions: Proteus mirabilis, G186; P. mirabilis G 186 (NDM, TEM)
Procedure: (§2) In a typical procedure for determining MIC values, overnight grown bacterial cultures were diluted appropriately and inoculated on the agar media containing doubling concentrations of the test compounds. Observation for growth or no growth was performed after 16-20 hours of incubation at 35±2° C. in ambient air. The overall procedure was performed as per Clinical and Laboratory Standards Institute (CLSI) recommendations (Clinical and Laboratory Standards Institute (CLSI), Performance Standards for Antimicrobial Susceptibility Testing, 20th Informational Supplement, M 100-S20, Volume 30, No. 1, 2010).

[5] = system: K. pneumoniae B88; test: MIC determination; type: cell-based; conditions: Klebsiella pneumoniae; K. pneumoniae B88 (NDM, SHV, TEM)
Procedure: as §2

[6] = system: P. mirabilis G 186; test: Minimum filamentation / spheroplasting concentration; conditions: P. mirabilis G 186 (NDM, TEM); minimum spheroplasting concentration
Text: The term “MSC” as used herein refers to minimum spheroplasting concentration, which is the minimum concentration of an antibacterial agent at which about 80% of bacterial cells covert into spheroplasts.
The term “MFC” as used herein refers to minimum filamentation concentration, which is the minimum concentration of an antibacterial agent at which about 80% of bacterial cells get elongated to form filament like structures.

[7] = system: K pneumoniae J 104; test: MIC determination (agar dilution, CLSI); type: cell-based; conditions: K pneumoniae J 104 (TEM1, SHV11, CTX-M, OMP); standalone
Procedure: as §2

[8] = system: K pneumoniae J 102; test: MIC determination (agar dilution, CLSI); type: cell-based; conditions: K pneumoniae J 102 (TEM1, SHV5, OMP); standalone
Procedure: as §2

[9] = system: K pneumoniae J 105; test: MIC determination (agar dilution, CLSI); type: cell-based; conditions: K pneumoniae J 105 (TEM1, SHV2, CTX-M, OMP); standalone
Procedure: as §2

[10] = system: K pneumoniae J 101; test: MIC determination (agar dilution, CLSI); type: cell-based; conditions: K pneumoniae J 101 (TEM1, SHV12, OMP); standalone
Procedure: as §2

[11] = system: E. coli ATCC 25922; test: Microbiological drug diffusion assay, standalone compounds in absence of beta-lactamase enzymes; type: cell-based; conditions: Escherichia coli, ATCC25922, 40 μg/ml, no beta-lactamase, read-out: Inhibition zone diameter
Procedure: Next, the beta-lactamase stability of some of these compounds was evaluated. In a typical stability study, ESBL enzymes from K. pneumoniae S48 producing Metalo betalactamase (NDM4) and Class A (CTX-M, SHV, TEM) beta-lactamase were isolated from freshly grown culture by 5 repetitive cycles of freeze and thaw in liquid nitrogen. […] After the stipulated incubation duration, the test compounds were extracted from the reaction mixture by the addition of 0.5 ml of Acetonitrile in 1:1 ratio (final concentration of test compound—40 μg/ml) and centrifuged at 12000 rpm for 2 min to separate precipitated protein. The activity of test compounds was measured from the supernatant by performing microbiological drug diffusion assay. For drug diffusion assay, Muller-Hinton Agar (MHA) seeded with E. coli ATCC 25922 was poured on to a bioassay plate placed on a flat surface and allowed to solidify. Appropriate concentration of the standalone and enzyme treated test compound dilutions were added to 6 mm wells cut with the help of a borer. The antibacterial activity of the test compounds was measured in terms of zones of inhibition appearing after 18-24 hours of incubation at 37° C. Measurement of diameter of zone of inhibition was undertaken to the nearest whole value with the help of ruler.

[12] = system: K. pneumonia S48 expressing multiple ESBLs including MBL (NDM4) and Class A (CTX-M, SHV, TEM); type: cell-based, K. pneumoniae; conditions: Cefepime 8 μg/ml, Compound of Formula (III) 2 μg/ml, Clavulanic acid 2 μg/ml, Mecillinam 2 μg/ml, Imipenem 8 μg/ml
Procedure: Log phase cultures were diluted to desired inoculums in flasks with MHB, containing various drug concentrations. Flasks were incubated at 35° C. in orbital shaker with rotational speed of 125 rpm. […] Plates were incubated for 24 hours at 35° C. and colonies were enumerated to determine the colony forming units (CFU) per ml volume.

`O=C(NNC(=O)[C@@H]1CC[C@@H]2CN1C(=O)N2OS(=O)(=O)O)[C@@H]1CCCNC1` [Compound of Formula (III), trans-(2S,5R)-sulfuric acid mono-[2-(N′—[(R)-piperidin-3-carbonyl]-hydrazino Carbonyl)-7-oxo-1,6-diaza-bicyclo[3.2.1]oct-6-yl] Ester] was tested. Which Bacterial count ([1]; 0 hour) did it give?
The Bacterial count was 6.14 Log10 CFU/ml.

And the Bacterial count ([1]; 2 hours)?
The Bacterial count was 7.3 Log10 CFU/ml.

And the Bacterial count ([1]; 4 hours)?
The Bacterial count was 7.8 Log10 CFU/ml.

What about the Bacterial count ([1]; 6 hours) of the same compound?
The Bacterial count was 7.9 Log10 CFU/ml.

What about the Bacterial count ([1]; 8 hours) of the same compound?
Its Bacterial count is 8.5 Log10 CFU/ml.

What about the “Antibacterial activity (in words)” value ([1]; Klebsiella pneumoniae B 88, at MFC and MSC concentration, Table 13) of the same compound?
The value was “did not exhibit antibacterial activity”.

What about the Bacterial count ([2]; 0 hour) of the same compound?
The Bacterial count was 6.58 Log10 CFU/ml.

What about the Bacterial count ([2]; 2 hours) of the same compound?
Its Bacterial count is 7.2 Log10 CFU/ml.

What about the Bacterial count ([2]; 4 hours) of the same compound?
Its Bacterial count is 7.7 Log10 CFU/ml.

And the Bacterial count ([2]; 6 hours)?
The Bacterial count was 8.43 Log10 CFU/ml.

What about the Bacterial count ([2]; 8 hours) of the same compound?
The Bacterial count was 8.6 Log10 CFU/ml.

What about the “Antibacterial activity (in words)” value ([2]; P. mirabilis G 186, at MFC and MSC concentration, Table 14) of the same compound?
Its value is “did not exhibit antibacterial activity”.

What about the IC50 [3] of the same compound?
The IC50 was greater than 10.2 µM.

What about the MIC [4] of the same compound?
Its MIC is greater than 64 µg/mL.

What about the MIC [5] of the same compound?
The MIC was 8 µg/mL.

And the MSC [6]?
Its MSC is 0.25 µg/mL.

What about the MIC [7] of the same compound?
The MIC was greater than 32 µg/mL.

What about the MIC [8] of the same compound?
The MIC was greater than 32 µg/mL.

And the MIC [9]?
The MIC was greater than 32 µg/mL.

And the MIC [10]?
Its MIC is greater than 32 µg/mL.

What about the zone of inhibition at 40 µg/mL ([11]; 0 hour) of the same compound?
Its zone of inhibition at 40 µg/mL is 16 mm.

What about the zone of inhibition at 40 µg/mL ([11]; 1 hour) of the same compound?
The zone of inhibition at 40 µg/mL was 16 mm.

What about the zone of inhibition at 40 µg/mL ([11]; 2 hours) of the same compound?
The zone of inhibition at 40 µg/mL was 16 mm.

And the zone of inhibition at 40 µg/mL ([11]; 24 hours)?
The zone of inhibition at 40 µg/mL was 16 mm.

What about the Bacterial count ([12]; 0 hour) of the same compound?
Its Bacterial count is 5.5 log (CFU/ml).

And the Bacterial count ([12]; 2 hours)?
The Bacterial count was 5.4 log (CFU/ml).

What about the Bacterial count ([12]; 4 hours) of the same compound?
Its Bacterial count is 3.5 log (CFU/ml).

What about the Bacterial count ([12]; 6 hours) of the same compound?
The Bacterial count was 3.6 log (CFU/ml).
